Among the data in US20240247030A1, “TARGETED DELIVERY OF TERTIARY AMINE-CONTAINING DRUG SUBSTANCES” (Seagen Inc., priority 2014, published 2024) are IC50 values, retold here.

The IC50 is the concentration that inhibits the measured activity by half.

Holding throughout (format): cell-based
One test deals with L428 MDR+ HL cells. As to the kind of experiment: In vitro cytotoxicity (CellTiter-Glo, 96 h). The note with it: Homo sapiens, L-428, 96 h, read-out: IC50, L428, MDR+ HL, Table 13; free drug, 96 hours.
In a further test the test system is HEL9217 AML cells. In words: In vitro cytotoxicity (CellTiter-Glo, 96 h). The settings on record: Homo sapiens, HEL 92.1.7, 96 h, read-out: IC50, HEL9217, MDR+ AML. Background: Cellular ATP, detected with luciferase, serves as a proxy for viable cell number.
For the next test, the system named is HL60 AML cells. As to the kind of experiment: cells. The settings on record: Homo sapiens, HL-60, 96 h, read-out: IC50, HL60, AML, Table 13; free drug, 96 hours. As to the method: In vitro assays. Cells cultured in log-phase growth were seeded for 24 h in 96-well plates containing 150 μL RPMI 1640 supplemented with 20% FBS. Serial dilutions of antibody-drug conjugates in cell culture media were prepared at 4× working concentrations; 50 μL of each dilution was added to the 96-well plates. Following addition of ADC, cells were incubated with test articles for 4 d at 37° C. After 96 h, growth inhibition was assessed by CellTiter-Glo™ (Promega, Madison, W1) and luminescence was measured on a plate reader. The IC50 value, determined in triplicate, is defined here as the concentration that results in a 50% reduction in cell growth relative to untreated controls.

The test system of the next test is 786-O RCC cells. As to the kind of experiment: In vitro cytotoxicity (CellTiter-Glo, 96 h). The settings on record: Homo sapiens, 786-0, 96 h, read-out: IC50, 786-O, MDR+ RCC.

Take `CC[C@H](C)[C@H](NC(=O)[C@H]1CCCCN1C)C(=O)N(C)[C@H](C[C@@H](OC(C)=O)c1nc(C(=O)N[C@@H](Cc2ccccc2)C[C@H](C)C(=O)NN)cs1)C(C)C` [Compound 190, (1R,3R)-3-((2S,3S)—N,3-dimethyl-2-((R)-1-methylpiperidine-2-carboxamido)pentanamido)-1-(4-(((2R,4S)-5-hydrazinyl-4-methyl-5-oxo-1-phenylpentan-2-yl)carbamoyl)thiazol-2-yl)-4-methylpentyl acetate]: the IC50 worked out at 1 nM in the test with L428 MDR+ HL cells, 4 nM in the test with HEL9217 AML cells, 0.8 nM with HL60 AML cells and 4 nM with 786-O RCC cells.
